In PMC3608532, “Characterization of a Single-Chain Variable Fragment Recognizing a Linear Epitope of Aβ: A Biotechnical Tool for Studies on Alzheimer’s Disease?” (PLoS ONE, 2013):

Tests used:
[1] = test system: Aβ(1-42) oligomers; assay: ELISA binding to Aβ(1-42) oligomers; design: species or system human; conditions: 250 ng/well, 10% N-biotinylated oligomers on streptavidin plate; compared with fibrils, p = 0.0014
Procedure: (§1) 1 mg of Aβ(1-42) or N-terminally/C-terminally biotinylated Aβ(1-42) was dissolved in 1 ml 1,1,1,3,3,3-hexafluorosiopropanol (HFIP) and incubated overnight at room temperature. Afterwards, Aβ(1-42) was mixed in the favored ratio with N-terminally/C-terminally biotinylated Aβ(1-42) and aliquoted. HFIP was evaporated using a SpeedVac (Concentrator 5301, Eppendorf, Germany) at room temperature for 30 min. To evaporate remaining HFIP, the sample was incubated overnight at room temperature with an open lid.
(§2) The preparation of Aβ(1-42) monomers and oligomers was carried out by size exclusion chromatography (SEC) as already described by Johansson et al with minor modifications. 250 µg of Aβ peptide was dissolved in 130 µl SEC buffer (50 mM NaPi, pH 7.4; 150 mM NaCl; 0.6% Tween-20) and briefly centrifuged (1 min, 16 100×g, room temperature) to remove insoluble fibrillar material. 100 µl of the supernatant was applied on a Superdex75 10/300 column (GE Healthcare, UK) connected to an Äkta purifier system (GE Healthcare, UK). The sample was eluted at a flow rate of 0.6 ml per min at room temperature and detected at wavelengths of 214, 250 and 278 nm. […] The concentration of the Aβ preparations was determined using the Micro BCA Protein Assay Kit (Thermo Scientific, Waltham, MA, USA). […] The samples were measured at a wavelength of 570 nm with a Polarstar Optima plate reader (BMG, Ortenberg, Germany). […]

[2] = test system: Aβ(pE3-8); assay: SPR binding kinetics to immobilized Aβ(pE3-8); conditions: SPR; two N-terminal residues truncated, E3 modified into pyroE3
Procedure: (§3) Binding kinetics were determined by SPR using a Biacore™ X (GE Healthcare, UK). Synthetic Aβ peptides were dissolved in 10 mM NaAc, pH 4.0. The CM5 sensor chip surface (GE Healthcare, UK) was activated using N-ethyl-N′-3 […] carbodiimide (EDC) and N-hydroxysuccinimide (NHS) chemistry followed by 2-(2-pyridinyldithio)ethaneamine hydrochloride (PDEA), in order to introduce a reactive thiol group. Aβ was coupled via the C-terminal cysteine to the chip at a flow rate of 5 µl/min, and the remaining active groups were blocked by injecting cysteine. The immobilization procedure was performed according to manufacturer’s recommendation. All kinetic analyses were performed at a flow rate of 20 µl/min in PBS. Varying concentrations of scFv-IC16 (10 to 5000 nM) and IC16 (10 to 1000 nM) were injected. […] When required, the surface was regenerated by injecting 20 µl 50 mM glycine, pH 11.0. The data evaluation was performed using Biaevaluation Software 4.1.1. ScFv-IC16 data were fitted according to the Langmuir 1∶1 binding model, whereas IC16 data were fitted according to the bivalent binding model. Standard errors of equilibrium dissociation constants (KD) were calculated using standard errors of the corresponding association and dissociation rate constants.

[3] = biological target: Aβ(2-8); assay: SPR binding kinetics to immobilized Aβ(2-8)
Procedure: as §3

[4] = biological target: Aβ(3-8); assay: SPR binding kinetics to immobilized Aβ(3-8)
Procedure: as §3

[5] = test system: Aβ(8-15); assay: SPR binding kinetics to immobilized Aβ(8-15)
Procedure: as §3

[6] = test system: Aβ(1-8); assay: SPR binding kinetics to immobilized Aβ(1-8)
Procedure: as §3

[7] = test system: Aβ(1-42) monomers; assay: ELISA binding to Aβ(1-42) monomers; design: species or system human; conditions: 250 ng/well
Procedure: as §1, §2

[8] = SPR Biacore X, CM5 chip, PBS, 25°C, global fit, scFv-IC16 Langmuir 1:1 model, IC16 bivalent model
[9] = SPR Biacore X, CM5 chip, PBS, 25°C, global fit, scFv-IC16 Langmuir 1:1 model, IC16 bivalent model, ± standard error, SEM
[10] = SPR, Langmuir 1:1 binding model

ELISA binding to Aβ oligomers [1]: weaker | binding to Aβ(pE3-8) [2]: no binding could be detected | Kd [3, 8]: 112 nM | k off [3, 9]: 7.65±0.03×10^−3 s^-1 | k on [3, 9]: 6.84±0.03×10^4 M^-1 s^-1 | Kd [3, 10]: ~112 nM | Kd [4, 8]: 5250 nM | k off [4, 9]: 43.9±0.3×10^−3 s^-1 | k on [4, 9]: 8.36±0.5×10^3 M^-1 s^-1 | Kd ([4]; SPR, A2 of Aβ truncated): > 5000 nM | interaction with Aβ(8-15) [5]: No interaction | k on ([6]; SPR Biacore X, Aβ peptide coupled via C-terminal cysteine to CM5 chip, PBS, 25°C, 20 µl/min, global fit, scFv-IC16 Langmuir 1:1 model, IC16 bivalent model, ± standard error, SEM): 3.10±0.02×10^4 M^-1 s^-1 | Kd ([6]; SPR Biacore X, CM5 chip, PBS, 25°C, global fit, scFv-IC16 Langmuir 1:1 model, IC16 bivalent model, standard error from kon and koff errors, SEM): 553 nM | k off [6, 9]: 1.72±0.005×10^−2 s^-1 | Kd [6, 10]: 550 nM | ELISA binding to Aβ monomers, C-terminal biotin tag ([7]; 100% C-terminally biotinylated monomers, p = 0.038 versus N-bio oligomers): very similar to Aβ oligomers | ELISA binding to Aβ monomers, N-terminal biotin tag ([7]; 100% N-terminally biotinylated monomers on streptavidin plate): not detected
Substance: scFv-IC16: single-chain variable fragment (VH-(Gly4Ser)3-VL, His6- and Myc-tag) derived from Aβ binding monoclonal antibody IC16, expressed in E. coli
